Structures can show the parent of a compound that is named as a salt.
target: T1, acetylcholinesterase (Rattus norvegicus, UniProt P37136); assay: biochemical; conditions: Male Wistar rat corpora striata homogenate; preincubated 10 minutes at 37° C.; acetylthiocholine substrate 5 millimolar final; log-probit analysis; read-out: Inhibition of Acetylcholinesterase Activity IC50
T1 construct: corpora striata dissected free, weighted and homogenized in 19 volumes (approximately 7 mg protein/ml) of 0.05M Phosphate Buffer; from tissue; host or cells: rat brain corpora striata, crude homogenate
T1 sequence (P37136 32-614): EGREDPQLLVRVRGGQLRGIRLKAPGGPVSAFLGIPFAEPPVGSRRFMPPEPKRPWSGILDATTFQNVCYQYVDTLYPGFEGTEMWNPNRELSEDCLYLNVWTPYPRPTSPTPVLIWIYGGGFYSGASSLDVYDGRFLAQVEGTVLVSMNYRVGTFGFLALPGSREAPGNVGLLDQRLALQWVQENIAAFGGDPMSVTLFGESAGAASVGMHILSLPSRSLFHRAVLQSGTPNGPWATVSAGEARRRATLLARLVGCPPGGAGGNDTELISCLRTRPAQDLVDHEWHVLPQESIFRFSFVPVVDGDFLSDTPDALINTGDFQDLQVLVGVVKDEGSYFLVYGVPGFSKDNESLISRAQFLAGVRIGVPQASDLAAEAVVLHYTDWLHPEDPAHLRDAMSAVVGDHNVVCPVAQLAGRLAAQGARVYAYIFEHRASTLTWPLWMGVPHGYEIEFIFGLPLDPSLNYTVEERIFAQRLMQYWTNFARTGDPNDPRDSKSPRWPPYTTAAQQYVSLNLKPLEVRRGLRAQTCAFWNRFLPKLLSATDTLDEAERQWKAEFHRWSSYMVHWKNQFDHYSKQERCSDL
Description: 1. 0.05M Phosphate Buffer (pH 7.2)
A solution of monobasic sodium phosphate monohydrate (6.85 g) in distilled water (100 ml) is added to a solution of dibasic sodium phosphate heptahydrate (13.4 g) and distilled water (100 ml) until a pH of 7.2 was attained. The solution was diluted 1 to 10 with distilled water.
3. 5,5-Dithiobisnitrobenzoic acid in Buffer
The 0.05M Phosphate Buffer (pH 7.2) was added to 5.5-dithiobisnitrobenzoic acid to a total volume of 100 ml, i.e., a quantity sufficient (gs) to 100 ml.
4. Stock Solution of Drug
A 2 millimolar stock solution of the test drug is prepared in a quantity sufficient of either acetic acid or dimethyl sulfoxide to volume with 5,5-dithiobisnitrobenzoic acid in Buffer. Stock Solution of Drug is serially diluted (1:10) so that the final cuvette concentration is 10^−4 molar.
Male Wistar rats are decapitated, brains rapidly removed, corpora striata dissected free, weighted and homogenized in 19 volumes (approximately 7 mg protein/ml) of 0.05M Phosphate Buffer (pH 7.2) using a Potter-Elvejhem homogenizer. A 25 μl aliquot of this suspension is added to 1 ml of the vehicle or various concentrations of the test drug and preincubated for 10 minutes at 37° C. Enzyme activity is measured with a Beckman DU-50 spectrophotometer with the following software and instrument settings:
Reagents are added to the blank and sample cuvettes as follows:
Blank values are determined for each run to control for non-enzymatic hydrolysis of substrate and these values are automatically subtracted by the Kindata program available on kinetics soft-pac module. This program also calculates the rate of absorbance change for each cuvette.
Substrate concentration is 10 millimolar diluted 1:2 in assay yielding final concentration of 5 millimolar. 5,5-dithiobisnitrobenzoicacid concentration is 0.5 millimolar yielding 0.25 millimolar final concentration. [formula]
IC50 values are calculated from log-probit analysis

Molecule	IC50 [µM]
4-(Methylaminocarbonyloxy)-3-(propargyloxy)1-(pyrrolidinomethyl)benzene Citrate [Example 17]	0.0036
CNC(=O)Oc1cc(CN2CCN(c3ccccn3)CC2)ccc1OC [Example 38, 4-[[4-Methoxy-3-(methylaminocarbonyloxy)]phenylmethyl]-1-(pyridin-2-yl)piperazine Dihydrochloride]	2.39
COc1cc(C(C)N2CCN(c3ccccn3)CC2)ccc1OC(=O)N(C)C (stereo not shown) [Example 78, 1-[1-(4-N,N-Dimethylcarbamoyloxy-3-methoxyphenyl)ethyl]-4-pyridin-2-yl-piperazine Dihydrochloride]	0.358
COc1cc(CN2CCN(c3ccccn3)CC2)c(Br)cc1OC(=O)N(C)C [Example 67, N-(2-Bromo-4-[dimethylcarbamoyloxy]-5-methoxy)benzyl-N′-(pyridin-2-yl)-piperazine]	0.018
CNC(=O)Oc1ccc(CN2CCN(c3ccccn3)CC2)cc1OC [Example 35, 4-[[3-Methoxy-4-(methylaminocarbonyloxy)]phenylmethyl]-1-(pyridin-2-yl)piperazine Hydrochloride Monohydrate]	0.536

same assay, conditions: read-out: Inhibition of Acetylcholinesterase Activity IC50

Molecule	IC50 [µM]
CC(c1ccc(OC(=O)N(C)C)c(F)c1)N1CCN(c2ccccn2)CC1 (stereo not shown) [Example 74, 1-[1-(4-N,N-Dimethylcarbamoyloxy-3-fuorophenyl)ethyl]-4-pyridin-2-yl-piperazine]	14

tested on: not given; assay: not given; conditions: not given

Molecule	melting point
COc1cc(CN2CCN(c3ccccc3OC)CC2)ccc1OC(=O)N(C)C (as salt: hydrochloride) [Example 49, 1-[[4-(Dimethylaminocarbonyloxy)-3-(methoxy)phenyl]methyl]-4-(2-methoxyphenyl)piperazine Dihydrochloride]	196 to 206 °C
C#CCOc1cc(CN2CCc3cc(OC)c(OC)cc3C2)ccc1OC (as salt: hydrochloride) [Example 36, 6,7-Dimethoxy-N-[(4-methoxy)-3-(propargyloxy)phenylmethyl]-1,2,3,4-tetrahydroisoquinoline Hydrochloride]	220 to 222 °C (dec.)
COc1cc(CN2CCN(c3ccccc3F)CC2)ccc1OC(=O)N(C)C	130 to 133 °C
COc1cc(CN2CCN(c3ccccn3)CC2)ccc1OC(=O)N(C)C [Example 40]	140 to 145 °C
COC1(OCCO)CCN(Cc2ccccc2)C1 (stereo not shown)	55 to 57 °C
CNC(=O)Oc1ccc(CN2CCc3cc(OC)c(OC)cc3C2)cc1OC (as salt: hydrochloride) [Example 42, 2-[3-Methoxy-4-(methylaminocarbonyloxy)phenylmethyl]-1-(6,7-dimethoxy)-1,2,3,4-tetrahydroisoquinoline Hydrochloride]	205 to 208 °C (dec.)
COc1cc(CN2CCN(c3ccccc3Cl)CC2)ccc1OC(=O)N(C)C.Cl	190 to 193 °C
CCOC(=O)COc1cc(C=O)ccc1OCc1ccccc1	36 to 43 °C
CNC(=O)Oc1ccc(CN2CCN(c3ccc([N+](=O)[O-])cc3)CC2)cc1OC	155 to 157 °C
C#CCOc1cc(C=O)ccc1OS(C)(=O)=O	81 to 83 °C

Source: patent publication US6479495B1, “Aminoalkylphenol derivatives and related compounds” (priority 1997, dated 2002)
